Test: molar heat capacity at constant pressure; xn = mol fraction of the nth substance listed
Conditions: 101.33 kPa, Liquid

CCCCCCOCCOCCOCCOCCOCCO [2-(hexyloxytetraethoxy)ethanol] + O
molar heat capacity at constant pressure [J/K/mol]
Conditions	283 K	288 K	298 K	308 K	318 K	328 K	338 K
x1 = 0.00036	75.88	75.76	75.66	75.64	75.68	75.77	75.85
x1 = 0.00072	76.25	76.13	76.04	76.03	76.07	76.14	76.23
x1 = 0.00106	76.6	76.5	76.43	76.42	76.46	76.53	76.6
x1 = 0.00146	77.04	76.94	76.92	76.95	76.95	76.93	76.96
x1 = 0.00175	77.35	77.33	77.41	77.35	77.25	77.18	77.19
x1 = 0.0018	77.46	77.42	77.48	77.44	77.35	77.28	77.3
x1 = 0.00235	78.13	78.25	78.2	78.06	77.88	77.81	77.83
x1 = 0.00281	78.98	78.99	78.74	78.45	78.27	78.21	78.27
x1 = 0.00324	79.99	79.7	79.24	78.86	78.68	78.63	78.61
x1 = 0.00357	80.51	80.06	79.53	79.18	78.99	78.93	78.99
x1 = 0.00398	81	80.46	79.78	79.43	79.29	79.25	79.27
x1 = 0.00473	81.76	81.26	80.57	80.19	80.01	79.95	79.97
x1 = 0.00503	82.06	81.55	80.85	80.47	80.3	80.24	80.25
x1 = 0.00543	82.41	81.91	81.22	80.85	80.67	80.61	80.57
x1 = 0.00585	82.79	82.27	81.58	81.22	81.05	80.99	81.01
x1 = 0.0063	83.1	82.58	81.9	81.54	81.37	81.31	81.32
x1 = 0.0069	83.54	83.03	82.38	82.04	81.89	81.82	81.83
x1 = 0.00752	84.02	83.53	82.92	82.62	82.49	82.43	82.46
x1 = 0.00819	84.48	84.03	83.46	83.18	83.06	83.02	83.06
x1 = 0.00886	85	84.56	84.02	83.75	83.64	83.61	83.65
x1 = 0.00969	85.51	85.11	84.64	84.42	84.35	84.37	84.46
x1 = 0.0118	87.08	86.76	86.37	86.21	86.16	86.19	86.22
x1 = 0.01312	88	87.75	87.46	87.33	87.3	87.32	87.37
x1 = 0.01647	90.68	90.57	90.49	90.48	90.51	90.58	90.44
x1 = 0.01786	91.44	91.39	91.36	91.4	91.49	91.6	91.72
x1 = 0.01996	92.94	92.97	93.07	93.17	93.26	93.31	93.32
x1 = 0.02247	94.73	94.84	95.04	95.24	95.42	95.55	95.59
x1 = 0.02729	98.3	98.56	99	99.32	99.54	99.68	99.81
x1 = 0.0303	100.51	100.88	101.48	101.9	102.19	102.38	102.52
x1 = 0.03518	103.98	104.48	105.27	105.84	106.24	106.51	106.68
x1 = 0.0397	107.24	107.83	108.77	109.44	109.93	110.24	110.48
x1 = 0.04518	111.01	111.69	112.79	113.6	114.17	114.53	114.82
x1 = 0.05201	115.67	116.48	117.75	118.68	119.37	119.87	120.21
x1 = 0.06018	121.38	122.34	123.83	124.98	125.84	126.57	126.88
x1 = 0.07563	131.77	132.81	134.56	135.97	137.1	137.96	138.56
x1 = 0.09777	146.15	147.28	149.31	151.06	152.51	153.69	154.59
x1 = 0.1356	170.77	171.98	174.29	176.42	178.34	180.03	181.46
x1 = 0.1978	210.08	211.39	213.91	216.46	218.95	221.31	223.41
x1 = 0.3066	278.42	279.68	282.35	285.3	288.41	291.49	294.37
x1 = 0.6924	513.75	515.35	519.97	524.59	529.47	534.66	538.64
x1 = 1	686.95	689.21	693.95	698.98	704.91	711.23	716.97

O [water] + CCCCCCOCCOCCOCCOCCOCCO
x2 = 0
Conditions	molar heat capacity at constant pressure [J/K/mol]
283 K	75.53
288 K	75.41
298 K	75.3
308 K	75.28
318 K	75.3
328 K	75.35
338 K	75.43

— the NIST ThermoML archive (doi:10.1016/j.tca.2004.11.001)
